Experimental data: patent publication US20230190616A1, “COMPOUNDS USEFUL FOR THE TREATMENT AND/OR CARE OF THE SKIN, HAIR, NAILS AND/OR MUCOUS MEMBRANES” (LUBRIZOL ADVANCED MATERIALS, INC., priority 2018, published 2023)

Experiments:
[1] = tested on: Musclebind like protein 1 (MBNL1) in human skeletal muscle cells (hSkMc); experiment: Quantification of Musclebind like protein 1 in human skeletal muscle cells by TR-FRET; type: cell-based; details: 0.5 mg/ml, hSkMc; for % MBNL1 vs basal level: 48 hours, normalized to total protein
Experimental: In vitro quantification of Musclebind like protein 1 in human skeletal muscle cells by Time resolved fluorescence resonance energy transfer.
MBNL1 induction by the peptides of the invention is evaluated by a Time resolved fluorescence resonance energy transfer (TR-FRET) assay. The aim of this study is to investigate the capacity of peptide candidates to increase MBNL-1 in human skeletal muscle cells (hSkMc).
hSkMc (Innoprot) are seeded in 12-well plates at a density of 1.5×10^4 cells/well in Skeletal Muscle Cell Growth Medium (Promocell). After 72 hours incubation, medium is removed and replaced with Skeletal Muscle Cell Differentiation Medium (Promocell). 48 hours after beginning cell differentiation, fresh differentiation medium with 0.5 mg/ml of test items is added. Treatment is continued for 48 hours and non-treated cells are used as basal control. After 48 hours of treatment, cell medium is removed and cell lysis buffer is added to wells. Immediately, plates are kept at -80° C. in order to improve protein extraction during the defrosting process. After 72 hours, cells are lysed by shaking the plates in an orbital rotor at room temperature for 45 minutes. Next, cell lysates are collected and assayed to quantify the level of MBNL-1 protein and total protein concentration.
MBNL-1 protein levels measurement is performed with Human MBNL1 Assay Kit (Cisbio) according to the manufacturer’s protocol. Briefly, the kit is used to perform a TR-FRET for MBNL1 quantification. The protein is detected with the antibodies provided in the kit and quantified by a fluorescence measurement. The quantification is carried out by using a microplate reader (ClarioStar™™™, BMG) set to 665 nm and 620 nm.
Total protein concentration of cell lysate is determined by using Pierce BCA Protein Assay Kit (Thermo Scientific) according to manufacturer’s protocol. In brief, after adding Working Reagent to the samples and the standards, the samples are incubated. Afterwards, color change is measured with an absorbance microplate reader (Clariostar™, BMG) at 562 nm. The total protein amount is used to normalize the level of MBNL1 protein concentration obtained by the TR-FRET test in the samples.

[2] = tested on: collagen type I in primary human dermal fibroblasts (HDFn); experiment: Type I collagen synthesis on human dermal fibroblasts by ELISA; type: cell-based; details: 0.5 µg/ml, HDFn; for % Collagen induction: 48 hours, versus non-treated cells, mean of 5 assays
Text: In vitro study of type I collagen synthesis on human dermal fibroblasts by Enzyme-Linked Immunosorbent Assay.
Collagen type I is the principal collagen of skin. This molecule, which is mainly produced by fibroblasts, is responsible for the strength and resiliency of this tissue. For this reason, in vitro quantification of collagen induction by cosmetic products on human dermal fibroblasts provides information about their potential anti-aging effects on the skin. Collagen induction by the peptides of the invention is evaluated with an Enzyme-Linked Immunosorbent Assay (ELISA). The aim of this study is to investigate the ability of a product to induce collagen type I synthesis in primary human dermal fibroblasts isolated from neonatal skin (HDFn).
HDFn (Cascade) are seeded at a density of 5×10^4 in 48-well plates. After 24-hour incubation, fresh medium with scalar dilutions of the test items at 0.5 µg/ml are added. Non-treated cells are used as basal control. The cells are treated for 48 hours. Then, the medium of the wells is collected and transferred into a 96-well plate. A standard calibration curve prepared with calf skin type I collagen (Sigma) is transferred into the plate as well. The plate is left overnight in order to coat type I collagen into its surface. After that, collagen I is detected with an anti-collagen type I antibody (Sigma). The primary antibody is then recognized by a secondary antibody IgG-HRP (molecular probes). 3,3,5,5-tetramethylbenzidine liquid substrate (TMB, Sigma) is added to measure the amount of secondary antibody attached. The color produced by this reaction is measured in a microtiter plate reader (Clariostar™, BMG) and type I collagen concentration is determined using a linear regression of the standard curve.

Row | Substance | % MBNL1 vs basal level [1] | MBNL1 levels compared to the basal control and to Argireline (in words) [1] | % Collagen induction [2] | Efficacy in increasing collagen type I compared with Argireline (in words) [2]
1 | Ac-L-Arg-L-Arg-D-Gln-L-Met-L-Glu-L-Glu-NH2 [PEP-22] | 141.4% | increase MBNL1 levels | 106.0% | –
2 | Ac-L-Arg-L-Arg-L-Gln-D-Met-L-Glu-L-Glu-NH2 [PEP-23] | 142.3% | increase MBNL1 levels | 114.6% | even higher
